In brackets after ≈: the same amount, converted by molar mass. Where two headings read alike, the source gives them in different places.
Tests used:
Assay in all cases: MIC against standard strains (agar dilution)
Format in all cases: cell-based
[1] = test system: Escherichia coli 851E; settings: Escherichia coli, 851E, 20 h
Procedure: (§1) Test example 1: Measurement of Minimum Inhibitory Concentration (MIC)
(§2) Specifically, test compounds were diluted by 2-fold dilution method and dispersed in Mueller-Hinton agar medium and then, 2µℓ of test strains were inoculated at a concentration of 10^7 cfu(colony forming unit)/mℓ on the medium and incubated for 20 hours at 37°C.

[2] = test system: Moraxella catarrhalis 25240
Procedure: as §1, §2

[3] = test system: Salmonella typhimurium 14028; settings: Salmonella enterica
Procedure: as §1, §2

[4] = test system: Escherichia coli TEM9 2639E; settings: TEM92639E
Procedure: as §1, §2

[5] = test system: Enterobacter cloacae IND+VE 1194E
Procedure: as §1, §2

[6] = test system: Staphylococcus aureus giorgio
Procedure: as §1, §2

[7] = test system: Klebsiella aerogenes SHV-1 1976E; settings: Klebsiella aerogenes, 20 h
Procedure: as §1, §2

[8] = test system: Enterococcus faecalis 29212
Procedure: as §1, §2

[9] = test system: Staphylococcus aureus 77
Procedure: as §1, §2

[10] = test system: Citrobacter freundii 8090
Procedure: as §1, §2

[11] = test system: Moraxella catarrhalis C2431
Procedure: as §1, §2

[12] = test system: Staphylococcus epidermidi 887E
Procedure: as §1, §2

[13] = test system: Pseudomonas aeruginosa 6065Y
Procedure: as §1, §2

[14] = test system: Klebsiella aerogenes K1+ 1082E
Procedure: as §1, §2

[15] = test system: Escherichia coli TEM1 1193E; settings: TEM11193E, 20 h
Procedure: as §1, §2

[16] = test system: Escherichia coli 3190Y; settings: Escherichia coli, 3190Y, 20 h
Procedure: as §1, §2

[17] = test system: Staphylococcus aureus 241
Procedure: as §1, §2

[18] = test system: Pseudomonas aeruginosa 1912E
Procedure: as §1, §2

[19] = test system: Klebsiella pneumoniae 2011E
Procedure: as §1, §2

[20] = test system: Enterobacter cloacae P99
Procedure: as §1, §2

[21] = test system: Serratia marcescens 1826E
Procedure: as §1, §2

[22] = test system: Acinetobacter calcoaceticu 15473
Procedure: as §1, §2

[23] = test system: Escherichia coli TEM3 3455E; settings: TEM33455E, 20 h
Procedure: as §1, §2

[24] = test system: Proteus vulgaris 6059
Procedure: as §1, §2

[25] = test system: Staphylococcus aureus 6538p
Procedure: as §1, §2

[26] = test system: Citrobacter diversus 2046E; settings: Citrobacter koseri
Procedure: as §1, §2

[27] = test system: Escherichia coli 10536
Procedure: as §1, §2

[28] = test system: Morganella morganii 1375E
Procedure: as §1, §2

[29] = Moraxella catarrhalis 25240, Mueller-Hinton agar, 20 hours at 37°C, read-out: MIC
[30] = Salmonella typhimurium 14028, Mueller-Hinton agar, 20 hours at 37°C, read-out: MIC
[31] = Escherichia coli TEM9 2639E, Mueller-Hinton agar, 20 hours at 37°C, read-out: MIC
[32] = Enterobacter cloacae IND+VE 1194E, Mueller-Hinton agar, 20 hours at 37°C, read-out: MIC
[33] = Staphylococcus aureus giorgio, Mueller-Hinton agar, 20 hours at 37°C, read-out: MIC
[34] = Enterococcus faecalis 29212, Mueller-Hinton agar, 20 hours at 37°C, read-out: MIC
[35] = Staphylococcus aureus 77, Mueller-Hinton agar, 20 hours at 37°C, read-out: MIC
[36] = Citrobacter freundii 8090, Mueller-Hinton agar, 20 hours at 37°C, read-out: MIC
[37] = Moraxella catarrhalis C2431, Mueller-Hinton agar, 20 hours at 37°C, read-out: MIC
[38] = Staphylococcus epidermidi 887E, Mueller-Hinton agar, 20 hours at 37°C, read-out: MIC
[39] = Pseudomonas aeruginosa 6065Y, Mueller-Hinton agar, 20 hours at 37°C, read-out: MIC
[40] = Klebsiella aerogenes K1+ 1082E, Mueller-Hinton agar, 20 hours at 37°C, read-out: MIC
[41] = Staphylococcus aureus 241, Mueller-Hinton agar, 20 hours at 37°C, read-out: MIC
[42] = Pseudomonas aeruginosa 1912E, Mueller-Hinton agar, 20 hours at 37°C, read-out: MIC
[43] = Klebsiella pneumoniae 2011E, Mueller-Hinton agar, 20 hours at 37°C, read-out: MIC
[44] = Enterobacter cloacae P99, Mueller-Hinton agar, 20 hours at 37°C, read-out: MIC
[45] = Serratia marcescens 1826E, Mueller-Hinton agar, 20 hours at 37°C, read-out: MIC
[46] = Acinetobacter calcoaceticu 15473, Mueller-Hinton agar, 20 hours at 37°C, read-out: MIC
[47] = Proteus vulgaris 6059, Mueller-Hinton agar, 20 hours at 37°C, read-out: MIC
[48] = Staphylococcus aureus 6538p, Mueller-Hinton agar, 20 hours at 37°C, read-out: MIC
[49] = Citrobacter diversus 2046E, Mueller-Hinton agar, 20 hours at 37°C, read-out: MIC
[50] = Escherichia coli 10536, Mueller-Hinton agar, 20 hours at 37°C, read-out: MIC
[51] = Morganella morganii 1375E, Mueller-Hinton agar, 20 hours at 37°C, read-out: MIC

Compound: CCO/N=C(\C(=O)NC1C(=O)N2C(C(=O)O)=C(Sc3cc(N)nc(N)n3)CSC12)c1csc(N)n1 (stereo not drawn) [compound 27, 7-[(Z)-2-(2-amino-thiazol-4-yl)-2-ethoxyiminoacetylamino]-3-(2,6-diamino-pyrimidin-4-ylsulfanyl)-8-oxo-5-thia-1-aza-bi cyclo[4,2,0]oct-2-ene-2-carboxylic acid]
- MIC [1]: 0.25 µg/mL (≈ 0.465 µM)
- MIC [2, 29]: ≤ 0.008 µg/mL
- MIC [3, 30]: 1 µg/mL (≈ 1.86 µM)
- MIC [4, 31]: 64 µg/mL (≈ 119 µM)
- MIC [5, 32]: > 64 µg/mL
- MIC [6, 33]: 0.5 µg/mL (≈ 0.93 µM)
- MIC [7]: 0.5 µg/mL (≈ 0.93 µM)
- MIC [8, 34]: 64 µg/mL (≈ 119 µM)
- MIC [9, 35]: 4 µg/mL (≈ 7.44 µM)
- MIC [10, 36]: 2 µg/mL (≈ 3.72 µM)
- MIC [11, 37]: ≤ 0.008 µg/mL
- MIC [12, 38]: 8 µg/mL (≈ 14.9 µM)
- MIC [13, 39]: 64 µg/mL (≈ 119 µM)
- MIC [14, 40]: > 64 µg/mL
- MIC [15]: 0.5 µg/mL (≈ 0.93 µM)
- MIC [16]: 0.13 µg/mL (≈ 0.242 µM)
- MIC [17, 41]: 8 µg/mL (≈ 14.9 µM)
- MIC [18, 42]: 8 µg/mL (≈ 14.9 µM)
- MIC [19, 43]: 2 µg/mL (≈ 3.72 µM)
- MIC [20, 44]: > 64 µg/mL
- MIC [21, 45]: 4 µg/mL (≈ 7.44 µM)
- MIC [22, 46]: 32 µg/mL (≈ 59.5 µM)
- MIC [23]: 16 µg/mL (≈ 29.8 µM)
- MIC [24, 47]: 0.063 µg/mL (≈ 0.117 µM)
- MIC [25, 48]: 2 µg/mL (≈ 3.72 µM)
- MIC [26, 49]: 64 µg/mL (≈ 119 µM)
- MIC [27, 50]: 0.25 µg/mL (≈ 0.465 µM)
- MIC [28, 51]: 0.25 µg/mL (≈ 0.465 µM)

Compound: CCO/N=C(\C(=O)NC1C(=O)N2C(C(=O)O)=C(Sc3cc(N)nc(N)n3)CSC12)c1nsc(N)n1 (stereo not drawn) [compound 29]
- MIC [1]: 0.25 µg/mL (≈ 0.464 µM)
- MIC ([2]; Moraxella catarrhalis, 25240, 20 h): ≤ 0.008 µg/mL
- MIC ([3]; TYPHIMURIUM, 20 h): 1 µg/mL (≈ 1.86 µM)
- MIC ([4]; Escherichia coli, 20 h): 64 µg/mL (≈ 119 µM)
- MIC ([5]; Enterobacter cloacae, 20 h): > 64 µg/mL
- MIC ([6]; Staphylococcus aureus, 20 h): 1 µg/mL (≈ 1.86 µM)
- MIC [7]: 1 µg/mL (≈ 1.86 µM)
- MIC ([8]; Enterococcus faecalis, 29212, 20 h): 64 µg/mL (≈ 119 µM)
- MIC ([9]; Staphylococcus aureus, 77, 20 h): 4 µg/mL (≈ 7.43 µM)
- MIC ([10]; Citrobacter freundii, 8090, 20 h): 2 µg/mL (≈ 3.71 µM)
- MIC ([11]; Moraxella catarrhalis, C2431, 20 h): ≤ 0.008 µg/mL
- MIC ([12]; Staphylococcus, 887E, 20 h): 8 µg/mL (≈ 14.9 µM)
- MIC ([13]; Pseudomonas aeruginosa, 6065Y, 20 h): > 64 µg/mL
- MIC ([14]; Klebsiella aerogenes, 20 h): > 64 µg/mL
- MIC [15]: 1 µg/mL (≈ 1.86 µM)
- MIC [16]: 0.063 µg/mL (≈ 0.117 µM)
- MIC ([17]; Staphylococcus aureus, 241, 20 h): 8 µg/mL (≈ 14.9 µM)
- MIC ([18]; Pseudomonas aeruginosa, 1912E, 20 h): 8 µg/mL (≈ 14.9 µM)
- MIC ([19]; Klebsiella pneumoniae, 2011E, 20 h): 2 µg/mL (≈ 3.71 µM)
- MIC ([20]; Enterobacter cloacae, P99, 20 h): > 64 µg/mL
- MIC ([21]; Serratia marcescens, 1826E, 20 h): 4 µg/mL (≈ 7.43 µM)
- MIC ([22]; Acinetobacter, 15473, 20 h): 32 µg/mL (≈ 59.4 µM)
- MIC [23]: 32 µg/mL (≈ 59.4 µM)
- MIC ([24]; Proteus vulgaris, 6059, 20 h): 0.063 µg/mL (≈ 0.117 µM)
- MIC ([25]; Staphylococcus aureus, 6538P, 20 h): 2 µg/mL (≈ 3.71 µM)
- MIC ([26]; 2046E, 20 h): > 64 µg/mL
- MIC ([27]; Escherichia coli, 10536, 20 h): 0.13 µg/mL (≈ 0.241 µM)
- MIC ([28]; Morganella morganii, 1375E, 20 h): 0.25 µg/mL (≈ 0.464 µM)

Compound: Nc1cc(SC2=C(C(=O)O)N3C(=O)C(NC(=O)/C(=N\O)c4csc(N)n4)C3SC2)nc(N)n1 (stereo not drawn) [compound 26, 7-[(Z)-2-(2-amino-thiazol-4-yl)-2-hydroxyimino-acetylamino]-3-(2,6-diamino-pyrimidin-4-ylsulfanyl)-8-oxo-5-thia-1-azabicyclo[4,2,0]oct-2-ene-2-carboxylic acid]
- MIC [1]: 0.063 µg/mL (≈ 0.124 µM)
- MIC [2, 29]: ≤ 0.008 µg/mL
- MIC [3, 30]: 0.13 µg/mL (≈ 0.255 µM)
- MIC [4, 31]: 32 µg/mL (≈ 62.8 µM)
- MIC [5, 32]: > 64 µg/mL
- MIC [6, 33]: 0.25 µg/mL (≈ 0.491 µM)
- MIC [7]: 0.5 µg/mL (≈ 0.981 µM)
- MIC [8, 34]: 16 µg/mL (≈ 31.4 µM)
- MIC [9, 35]: 2 µg/mL (≈ 3.92 µM)
- MIC [10, 36]: 8 µg/mL (≈ 15.7 µM)
- MIC [11, 37]: 0.016 µg/mL (≈ 0.0314 µM)
- MIC [12, 38]: 2 µg/mL (≈ 3.92 µM)
- MIC [13, 39]: > 64 µg/mL
- MIC [14, 40]: > 64 µg/mL
- MIC [15]: 0.5 µg/mL (≈ 0.981 µM)
- MIC [16]: 0.031 µg/mL (≈ 0.0608 µM)
- MIC [17, 41]: 8 µg/mL (≈ 15.7 µM)
- MIC [18, 42]: > 64 µg/mL
- MIC [19, 43]: 1 µg/mL (≈ 1.96 µM)
- MIC [20, 44]: > 64 µg/mL
- MIC [21, 45]: 64 µg/mL (≈ 126 µM)
- MIC [22, 46]: 32 µg/mL (≈ 62.8 µM)
- MIC [23]: 64 µg/mL (≈ 126 µM)
- MIC [24, 47]: 0.031 µg/mL (≈ 0.0608 µM)
- MIC [25, 48]: 0.5 µg/mL (≈ 0.981 µM)
- MIC [26, 49]: > 64 µg/mL
- MIC [27, 50]: 0.063 µg/mL (≈ 0.124 µM)
- MIC [28, 51]: 0.25 µg/mL (≈ 0.491 µM)

From patent publication EP1077981B1, “NOVEL CEPHALOSPORIN COMPOUNDS, PROCESSES FOR PREPARATION THEREOF AND ANTIMICROBIAL COMPOSITIONS CONTAINING THE SAME” (LG CHEMICAL LIMITED, priority 1998, dated 1999)
